Measured values: patent publication US20260248784A1, “BTK Degrader and Use Thereof” (JIANGSU VCARE PHARMATECH CO., LTD., priority 2023, published 2026)
pIC50: −log10 of the molar value.

system: mino cells; assay: Activity test in Mino cells (CCK8 proliferation inhibition); assay type: cell-based; conditions: Homo sapiens, 72 h, 3 days, read-out: Cell inhibition IC50
Experimental: Cell culture: mino cells (culture conditions: RPMI1640 medium+15% FBS, 37° C., 5% CO2). Cell plating: The cells subcultured into the logarithmic growth phase were collected and transferred into a centrifuge tube, and centrifuged at 800 rpm for 5 min. The cells were resuspended in complete medium and counted. The cells were diluted and adjusted to a final concentration of 200000 cells/mL. The cells were then seeded into a 96-well plate with 100 μL per well. Cell administration: Each group of drug solutions was added into the 96-well plate, 100 μL per well, n=3 for each drug concentration. Meanwhile, negative wells (n=6) and blank wells (n=3) were set up. The 96-well plate was incubated in the incubator for further 3 days. CCK8 reagent was added to the 96-well plate, 20 μL per well, and then the plate was placed in the incubator for further 4 h. The absorbance of the solution was measured at a wavelength of 450 nm using an enzyme reader. The proliferation inhibition rate was calculated and the half inhibitory concentration IC50 value was calculated.

SMILES | pIC50
COc1ccc(F)cc1C(=O)NCc1ccc(-c2nn(-c3ccc(N4CCC(CN5CCN(c6ccc(N7CCC(=O)NC7=O)c(C)c6)CC5)CC4)cc3)c3ncnc(N)c23)cc1 [Compound I-42] | > 7.60
COc1ccc(F)cc1C(=O)NCc1ccc(-c2nn(-c3ccc(N4CCN(CC5CCN(c6ccc(N7CCC(=O)NC7=O)c(C)c6)CC5)CC4)nc3)c3ncnc(N)c23)c(F)c1F [Compound I-43] | > 7.30
COc1ccc(F)cc1C(=O)NCc1ccc(-c2nn(-c3ccc(C4CCN(CC5CCN(c6ccc(N7CCC(=O)NC7=O)c(C)c6)CC5)CC4)cc3)c3ncnc(N)c23)cc1F [Compound I-44, N-(4-(4-amino-1-(4-(1-((1-(4-(2,4-dioxotetrahydropyrimidin-1(2H)-yl)-3-methylphenyl)piperidin-4-yl)methyl)piperidinyl)phenyl)-1H-pyrazolo[3,4-d]pyrimidin-3-yl)-2-fluorobenzyl)-5-fluoro-2-methoxybenzamide] | > 7.60
COc1ccc(F)cc1C(=O)NCc1ccc(-c2nc(-c3ccc(N4CCN(CC5CCN(c6ccc(N7CCC(=O)NC7=O)c(C)c6)CC5)CC4)cc3)n3ccnc(N)c23)cc1F [Compound I-45] | > 7.30
COc1ccc(F)cc1C(=O)NCc1ccc(-c2nn(-c3ccc(N4CCN(CC5CCN(c6ccc(N7CCC(=O)NC7=O)c(C)c6)CC5)CC4)cc3)c3ccnc(N)c23)cc1 [Compound I-46] | > 7.00
COc1ccc(F)cc1C(=O)NCc1ccc(-c2nc(-c3ccc(N4CCN(CC5CCN(c6ccc(N7CCC(=O)NC7=O)c(C)c6)CC5)CC4)cc3)n3ccnc(N)c23)c(F)c1 [Compound I-47] | > 7.60
COc1ccc(F)cc1C(=O)NCc1ccc(-n2c(=O)n(-c3ccc(N4CCN(CC5CCN(c6ccc(N7CCC(=O)NC7=O)c(C)c6)CC5)CC4)cc3)c3ccnc(N)c32)cc1 [Compound I-48] | > 7.60
CCc1cc(-c2nc(-c3ccc(CNC(=O)c4cc(F)ccc4OC)cc3)c3c(N)nccn23)ccc1N1CCN(CC2CCN(c3ccc(N4CCC(=O)NC4=O)c(C)c3)CC2)CC1 [Compound I-49] | > 7.00
COc1ccc(F)cc1C(=O)NCc1ccc(-c2nc(-c3ccc(C4=CCN(CC5CCN(c6ccc(N7CCC(=O)NC7=O)c(C)c6)CC5)CC4)cc3)n3ccnc(N)c23)cc1 [Compound I-50] | > 7.60
COc1ccc(F)cc1C(=O)NCc1ccc(-c2nc(-c3ccc(N4CCN(CC5CCN(c6ccc(N7CCC(=O)NC7=O)c(C)c6)CC5)CC4)c(OC)c3)n3ccnc(N)c23)cc1 [Compound I-51] | > 7.60
COc1ccc(F)cc1C(=O)NCc1ccc(-n2c(=O)n(-c3ccc(N4CCN(CC5CCN(c6ccc(N7CCC(=O)NC7=O)c(C)c6)CC5)CC4)nc3)c3ccnc(N)c32)cc1 [Compound I-52, N-(4-(4-amino-1-(6-(4-((1-(4-(2,4-dioxotetrahydropyrimidin-1(2H)-yl)-3-methylphenyl)piperidin-4-yl)methyl)piperazin-1-yl)pyridin-3-yl)-2-oxo-1,2-dihydro-3H-imidazo[4,5-c]pyridin-3-yl)benzyl)-5-fluoro-2-methoxybenzamide] | > 7.30
COc1ccc(F)cc1C(=O)NCc1ccc(-c2nc(-c3ccc(N4CC5CC(C4)N5CC4CCN(c5ccc(N6CCC(=O)NC6=O)c(C)c5)CC4)cc3)n3ccnc(N)c23)cc1 [Compound I-53] | > 7.30
Cc1cc(N2CCC(CN3CCN(c4ccc(-c5nc(-c6ccc(Oc7ccccc7)cc6)c6c(N)nccn56)cn4)CC3)CC2)ccc1N1CCC(=O)NC1=O [Compound I-54, 1-(4-(4-((4-(5-(8-amino-1-(4-phenoxyphenyl)imidazo[1,5-a]pyrazin-3-yl)pyridin-2-yl)piperazin-1-yl)methyl)piperidin-1-yl)-2-methylphenyl)dihydropyrimidine-2,4(1H,3H)-dione] | > 7.30
Cc1cc(N2CCC(CN3CCN(c4ccc(-n5nc(-c6ccc(Oc7ccccc7)cc6)c6c(N)ncnc65)cc4)CC3)CC2)ccc1N1CCC(=O)NC1=O [Compound I-55] | > 7.00
COc1ccc(F)cc1C(=O)NCc1ccc(-c2nn(-c3ccc(N4CCN(CC5CCN(c6ccc7c(c6)CN(C6CCC(=O)NC6=O)C7=O)CC5)CC4)nc3)c3ncnc(N)c23)cc1 (centres unmarked) [II-1] | 8.40
COc1ccc(F)cc1C(=O)NCc1ccc(-c2nn(-c3ccc(N4CCN(CC5CCN(c6ccc7c(c6)CN(C6CCC(=O)NC6=O)C7=O)CC5)CC4)nc3)c3ncnc(N)c23)cc1C (centres unmarked) [II-2, N-(4-(4-amino-1-(6-(4-((1-(2-(2,6-dioxopiperidin-3-yl)-1-oxoisoindolin-5-yl)piperidin-4-yl)methyl)piperazin-1-yl)pyridin-3-yl)-1H-pyrazolo[3,4-d]pyrimidin-3-yl)-2-methylbenzyl)-5-fluoro-2-methoxybenzamide] | 7.77
COc1ccc(F)cc1C(=O)NCc1ccc(-c2nn(-c3ccc(N4CCN(CC5CCN(c6ccc7c(c6)C(=O)N(C6CCC(=O)NC6=O)C7=O)CC5)CC4)nc3)c3ncnc(N)c23)cc1 (centres unmarked) [II-3, N-(4-4-amino-1-(6-(4-(1-(2,6-dioxopiperidin-3-yl)-1,3-dioxoisoindolin-5-ylpiperidin-4-yl)methylpiperazin-1-ylpyridin-3-yl)-1H-pyrazolo[3,4-d]pyrimidin-3-yl)benzyl)-5-fluoro-2-methoxybenzamide] | 7.77
COc1ccc(F)cc1C(=O)NCc1ccc(-c2nn(-c3ccc(N4CCC(CN5CCN(c6ccc7c(c6)C(=O)N(C6CCC(=O)NC6=O)C7)CC5)CC4)nc3)c3ncnc(N)c23)cc1 (centres unmarked) [II-4, N-(4-(4-amino-1-(6-(4-((4-(2-(2,6-dioxopiperidin-3-yl)-3-oxoisoindolin-5-yl)piperazin-1-yl)methyl)piperidin-1-yl)pyridin-3-yl)-1H-pyrazolo[3,4-d]pyrimidin-3-yl)benzyl)-5-fluoro-2-methoxybenzamide] | 7.92
COc1ccc(F)cc1C(=O)NCc1ccc(-c2nn(-c3ccc(N4CCN(CC5CCN(c6ccc7c(c6)CN(C6CCC(=O)NC6=O)C7=O)CC5)CC4)nc3)c3ncnc(N)c23)cc1F (centres unmarked) [II-5, N-(4-(4-amino-1-(6-(4-((1-(2-(2,6-dioxopiperidin-3-yl)-1-oxoisoindolin-5-yl)piperidin-4-yl)methyl)piperazin-1-yl)pyridin-3-yl)-1H-pyrazolo[3,4-d]pyrimidin-3-yl)-2-fluorobenzyl)-5-fluoro-2-methoxybenzamide] | 8.05
COc1ccc(F)cc1C(=O)NCc1ccc(-c2nn(-c3ccc(N4CCN(CC5CCN(c6ccc7c(c6)C(=O)N(C6CCC(=O)NC6=O)C7=O)CC5)CC4)nc3)c3ncnc(N)c23)cc1C (centres unmarked) [II-6, N-(4-(4-amino-1-(6-(4-((1-(2-(2,6-dioxopiperidin-3-yl)-1,3-dioxoisoindol-5-yl)piperidin-4-yl)methyl)piperazin-1-yl)pyridin-3-yl)-1H-pyrazolo[3,4-d]pyrimidin-3-yl)-2-methylbenzyl)-5-fluoro-2-methoxybenzamide] | 7.68
COc1ccc(F)cc1C(=O)NCc1ccc(-c2nn(-c3ccc(C4CCN(CC5CCN(c6ccc7c(c6)C(=O)N(C6CCC(=O)NC6=O)C7=O)CC5)CC4)nc3)c3ncnc(N)c23)cc1 (centres unmarked) [II-7, N-(4-(4-amino-1-(6-(1-((1-(2-(2,6-dioxopiperidin-3-yl)-1,3-dioxoisoindolin-5-yl)piperidin-4-yl)methyl)piperidin-4-yl)pyridin-3-yl)-1H-pyrazolo[3,4-d]pyrimidin-3-yl)benzyl)-5-fluoro-2-methoxybenzamide] | 7.74
COc1ccc(F)cc1C(=O)NCc1ccc(-c2nn(-c3ccc(N4CCN(CC5CCN(c6ccc7c(c6)C(=O)N(C6CCC(=O)NC6=O)C7)CC5)CC4)cc3)c(N)c2C(N)=O)cc1 (centres unmarked) [II-10] | > 7.60
COc1ccc(F)cc1C(=O)NCc1ccc(-c2nn(-c3ccc(N4CCN(CC5CCN(c6ccc7c(c6)CN(C6CCC(=O)NC6=O)C7=O)CC5)CC4)nc3)c3ccnc(N)c23)cc1 (centres unmarked) [II-12, N-(4-(4-amino-1-(6-(4-((1-(2-(2,6-dioxopiperidin-3-yl)-1-oxoisoindol-5-yl)piperidin-4-yl)methyl)piperazin-1-yl)pyridin-3-yl)-1H-pyrazolo[4,3-c]pyridin-3-yl)benzyl)-5-fluoro-2-methoxybenzamide] | > 6.30
COc1ccc(F)cc1C(=O)NCc1ccc(-n2c(=O)n(-c3ccc(N4CCN(CC5CCN(c6ccc7c(c6)CN(C6CCC(=O)NC6=O)C7=O)CC5)CC4)cc3)c3ccnc(N)c32)cc1 (centres unmarked) [II-24, N-(4-(4-amino-1-(4-(-4-((1-(2-(2,6-dioxopiperidin-3-yl)-1-oxoisoindol-5-yl)piperidin-4-yl)methyl)piperazin-1-yl)phenyl)-2-oxo-1,2-dihydro-3H-imidazo[4,5-c]pyridin-3-yl)benzyl)-5-fluoro-2-methoxybenzamide] | > 7.30
COc1ccc(F)cc1C(=O)NCc1ccc(-c2nn(-c3ccc(N4CCN(CC5CCN(c6ccc7c(c6)C(=O)N(C6CCC(=O)NC6=O)C7)CC5)CC4)nc3)c(N)c2C(N)=O)cc1 (centres unmarked) [II-34, 5-amino-1-(6-(4-((1-(2-(2,6-dioxopiperidin-3-yl)-3-oxoisoindolin-5-yl)piperidin-4-yl)methyl)piperazin-1-yl)pyridin-3-yl)-4-(((5-fluoro-2-methoxybenzamido)methyl)phenyl)-1H-pyrazole-4-carboxamide] | > 7.60
Nc1ncnc2c1c(-c1ccc(Oc3ccccc3)cc1)nn2-c1ccc(N2CCC(CN3CCN(c4ccc5c(c4)C(=O)N(C4CCC(=O)NC4=O)C5=O)CC3)CC2)nc1 (centres unmarked) [II-37, 5-(4-((1-(5-(4-amino-3-(4-phenoxyphenyl)-1H-pyrazolo[3,4-d]pyrimidin-1-yl)pyridin-2-yl)piperidin-4-yl)methyl)piperazin-1-yl)-2-(2,6-dioxopiperidin-3-yl) isoindoline-1,3-dione] | > 7.60
